The source of these data is PMC8231170, “Biphenylalkoxyamine Derivatives–Histamine H3 Receptor Ligands with Butyrylcholinesterase Inhibitory Activity” (Molecules, 2021).

SMILES strings stand for the structures. Structures can show the parent of a compound that is named as a salt. Bounds are passed on as bounds.

T2 sequence (P81908 whole entry): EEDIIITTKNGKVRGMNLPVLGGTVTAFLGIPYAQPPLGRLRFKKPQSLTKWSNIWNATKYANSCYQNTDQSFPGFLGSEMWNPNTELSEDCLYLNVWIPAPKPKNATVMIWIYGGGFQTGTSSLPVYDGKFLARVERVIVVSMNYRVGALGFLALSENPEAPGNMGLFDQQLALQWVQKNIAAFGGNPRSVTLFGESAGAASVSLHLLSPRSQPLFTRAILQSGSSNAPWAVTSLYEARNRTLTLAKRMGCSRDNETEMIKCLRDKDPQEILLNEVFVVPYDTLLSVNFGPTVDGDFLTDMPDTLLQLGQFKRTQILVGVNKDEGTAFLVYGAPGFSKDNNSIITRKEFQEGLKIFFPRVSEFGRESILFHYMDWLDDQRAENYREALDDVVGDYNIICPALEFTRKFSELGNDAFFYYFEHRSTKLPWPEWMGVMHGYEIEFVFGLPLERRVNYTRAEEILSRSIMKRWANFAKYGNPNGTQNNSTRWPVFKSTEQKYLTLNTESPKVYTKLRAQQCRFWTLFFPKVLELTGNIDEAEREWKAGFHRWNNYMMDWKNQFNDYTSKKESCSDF

For one test, the target named is T1, human histamine H3 receptor (Homo sapiens, UniProt Q9Y5N1).
T1 construct: expressed in transfected cells; host or cells: HEK293
T1 sequence (Q9Y5N1 whole entry): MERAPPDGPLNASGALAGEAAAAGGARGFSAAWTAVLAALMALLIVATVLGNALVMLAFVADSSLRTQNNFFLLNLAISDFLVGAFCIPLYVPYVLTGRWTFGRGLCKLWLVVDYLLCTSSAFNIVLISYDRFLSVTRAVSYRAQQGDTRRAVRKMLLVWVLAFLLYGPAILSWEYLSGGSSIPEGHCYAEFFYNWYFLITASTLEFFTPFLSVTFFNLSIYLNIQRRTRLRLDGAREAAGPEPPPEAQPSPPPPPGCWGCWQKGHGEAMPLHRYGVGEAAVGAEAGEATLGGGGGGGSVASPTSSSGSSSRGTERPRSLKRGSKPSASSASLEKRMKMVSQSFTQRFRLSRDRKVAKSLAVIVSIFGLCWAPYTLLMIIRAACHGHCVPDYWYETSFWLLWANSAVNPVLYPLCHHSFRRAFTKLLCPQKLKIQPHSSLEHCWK
Nature of the test: hH3R radioligand binding assay ([3H]Nα-methylhistamine).
Settings: not given
The protocol:
Affinity to human histamine H3 receptor stably expressed in HEK293 cells was evaluated in a radioligand binding assay with N^α-methylhistamine according to the previous procedure. […] The bound radioligand was separated from the free radioligand by filtration through GF/B filters (pretreated with 0.3% (m/v) polyethylenimine) using Inotech cell harvester (Dottikin, Switzerland). Unbound radioligand was removed by three washing steps with ice-cold water. The radioactivity was determined in a liquid scintillation counter (Perkin Elmer Trilux Betacounter, Germany). Scintillation data corrected for non-specific binding were analyzed using GraphPad Prism (V6.01, San Diego, CA, USA) software. Ki values were calculated from IC50 values (from at least three experiments, performed in duplicates) according to the Cheng–Prusoff equation [29].
A word on the Ki: it is the dissociation constant of the complex between target and ligand, obtained from inhibition or displacement. The compound `CC1CCN(CCCCCCOc2ccccc2-c2ccccc2)CC1` [Compound 18, 1-(6-([1,1′-Biphenyl]-2-yloxy)hexyl)-4-methylpiperidine Hydrogen Oxalate] registered a Ki of 561 nM.
Take `CC1CCCN(CCCCCCOc2cccc(-c3ccccc3)c2)C1` (stereo not shown) [Compound 14, 1-(6-([1,1′-Biphenyl]-3-yloxy)hexyl)-3-methylpiperidine Hydrogen Oxalate]: the Ki was 27 nM.
Still for that read-out and setting: next, `c1ccc(-c2ccccc2OCCCCCCN2CCCCC2)cc1` [Compound 10, 1-(6-[1,1′-Biphenyl]-2-yloxy)hexyl)piperidine Hydrogen Oxalate]: 221 nM.
On the same count and under the same terms, then `c1ccc(-c2ccccc2OCCCCCCN2CCCCCC2)cc1` [Compound 22, 1-(6-([1,1′-Biphenyl]-2-yloxy)hexyl)azepane Hydrogen Oxalate], with 528 nM; and `CC1CCCN(CCCCCCOc2ccccc2-c2ccccc2)C1` (stereo not shown) [Compound 15, 1-(6-([1,1′-Biphenyl]-2-yloxy)hexyl)-3-methylpiperidine Hydrogen Oxalate], with 23 nM; and `CC1CCCN(CCCCCOc2cccc(-c3ccccc3)c2)C1` (stereo not shown) [Compound 12, 1-(5-([1,1′-Biphenyl]-3-yloxy)pentyl)-3-methylpiperidine Hydrogen Oxalate], with 45 ± 13.4 nM.

The same test, now with this note: [3H]Nα-methylhistamine, HEK293 cells stably expressing human H3R; read-out: hH3R Ki Mean ± SD [CI 95%].
Turning to `CC1CCCN(CCCCCOc2ccc(-c3ccccc3)cc2)C1` (stereo not shown) [Compound 11, 1-(5-([1,1′-Biphenyl]-4-yloxy)pentyl)-3-methylpiperidine Hydrogen Oxalate], the Ki was 27.3 ± 15.1 nM.
Same read-out and setting: then `CC1CCCN(CCCCCCOc2ccc(-c3ccccc3)cc2)C1` (stereo not shown) [Compound 13, 1-(6-([1,1′-Biphenyl]-4-yloxy)hexyl)-3-methylpiperidine Hydrogen Oxalate], with 146 ± 65.3 nM.

Another test addresses T2, BuChE from equine serum (Equus caballus, UniProt P81908).
T2 construct: AChE was obtained from electric eel and BuChE from equine serum; purchased Sigma Aldrich; host or cells: equine serum (natural source)
Nature of the test: eqBuChE inhibition, Ellman's method. The conditions noted are these: BuChE from equine serum; read-out: eqBuChE IC50 Mean ± SEM. Format: biochemical. The protocol:
The inhibitory activities of the tested compounds against cholinesterases were evaluated by Ellman’s method. AChE was obtained from electric eel and BuChE from equine serum. […] Inhibitory activities of the tested compounds against cholinesterases were measured using a spectrophotometric method modified for 96-well microplates as described recently.
First, all compounds were screened at the concentration of 10 μM. […] Then, the percent of inhibition of tested enzymes for each compound was calculated. […] Each concentration was measured in triplicate. All calculations were made using nonlinear regression GraphPad Prism 5 (GraphPad Software, San Diego, CA, USA).
For orientation: In Ellman's method for cholinesterases, released thiocholine reacts with DTNB.
By IC50 is commonly meant the concentration that gives 50% inhibition. In the case of `CC1CCCN(CCCCCOc2ccc(-c3ccccc3)cc2)C1` (stereo not shown) [Compound 11, 1-(5-([1,1′-Biphenyl]-4-yloxy)pentyl)-3-methylpiperidine Hydrogen Oxalate], the IC50 came out at 910 ± 10 nM.
Same read-out and setting: then `CC1CCN(CCCCCCOc2ccccc2-c2ccccc2)CC1` [Compound 18, 1-(6-([1,1′-Biphenyl]-2-yloxy)hexyl)-4-methylpiperidine Hydrogen Oxalate], with 1480 ± 40 nM; and `CC1CCN(CCCCCOc2cccc(-c3ccccc3)c2)CC1` [Compound 16], with 1460 ± 30 nM; and `CC1CCCN(CCCCCCOc2cccc(-c3ccccc3)c2)C1` (stereo not shown) [Compound 14, 1-(6-([1,1′-Biphenyl]-3-yloxy)hexyl)-3-methylpiperidine Hydrogen Oxalate], with 1520 ± 40 nM.
Regarding `CC1CCCN(CCCCCCOc2ccc(-c3ccccc3)cc2)C1` (stereo not shown) [Compound 13, 1-(6-([1,1′-Biphenyl]-4-yloxy)hexyl)-3-methylpiperidine Hydrogen Oxalate], the concentration for half-maximal inhibition (IC50) stood at 950 nM.
The same measure, in the same setting: next, `c1ccc(-c2ccccc2OCCCCCCN2CCCCC2)cc1` [Compound 10, 1-(6-[1,1′-Biphenyl]-2-yloxy)hexyl)piperidine Hydrogen Oxalate]: 1280 ± 20 nM; `c1ccc(-c2ccccc2OCCCCCCN2CCCCCC2)cc1` [Compound 22, 1-(6-([1,1′-Biphenyl]-2-yloxy)hexyl)azepane Hydrogen Oxalate]: 690 ± 50 nM.
The same measure, in the same setting: next, `CC1CCCN(CCCCCCOc2ccccc2-c2ccccc2)C1` (stereo not shown) [Compound 15, 1-(6-([1,1′-Biphenyl]-2-yloxy)hexyl)-3-methylpiperidine Hydrogen Oxalate]: 2100 ± 60 nM.
`CC1CCCN(CCCCCOc2cccc(-c3ccccc3)c2)C1` (stereo not shown) [Compound 12, 1-(5-([1,1′-Biphenyl]-3-yloxy)pentyl)-3-methylpiperidine Hydrogen Oxalate]: the 50% inhibitory concentration (IC50) stood at 680 ± 10 nM.

A further test addresses T3, human MAO B (Homo sapiens, UniProt P27338).
T3 construct: purchased Sigma Aldrich M7441
T3 sequence (P27338 1-520): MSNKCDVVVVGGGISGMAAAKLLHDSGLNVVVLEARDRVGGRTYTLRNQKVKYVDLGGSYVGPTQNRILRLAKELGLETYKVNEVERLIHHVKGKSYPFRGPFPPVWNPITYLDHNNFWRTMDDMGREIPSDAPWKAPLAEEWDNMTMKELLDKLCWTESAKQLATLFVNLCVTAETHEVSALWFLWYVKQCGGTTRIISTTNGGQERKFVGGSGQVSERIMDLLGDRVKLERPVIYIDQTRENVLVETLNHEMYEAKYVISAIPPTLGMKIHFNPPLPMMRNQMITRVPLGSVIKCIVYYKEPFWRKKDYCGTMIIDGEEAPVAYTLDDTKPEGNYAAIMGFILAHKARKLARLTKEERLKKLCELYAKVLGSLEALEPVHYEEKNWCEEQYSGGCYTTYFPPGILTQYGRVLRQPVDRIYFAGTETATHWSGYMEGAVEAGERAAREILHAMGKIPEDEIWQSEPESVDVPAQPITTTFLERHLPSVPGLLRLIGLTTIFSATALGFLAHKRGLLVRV
Nature of the test: fluorometric Monoamine Oxidase assay. The conditions noted are these: at 1 μM; read-out: hMAO B %Inh. (converted). The format is biochemical. The protocol: Inhibition of human MAO B (hMAO B) was evaluated using a fluorometric Monoamine Oxidase assay as we described previously.
Inhibition of hMAO B was evaluated using fluorometric Monoamine Oxidase assay as described by Łażewska et al.. Recombinant MAO B was purchased from Sigma Aldrich (M7441). […] The assay was carried out in 96-well plate. Tested compounds dissolved in DMSO (1 μM) were added to wells that contained 98 µL of enzyme dilution (1 µg/well) in phosphate buffer (50 mM, pH 7.4). […] An enzymatic reaction started following addition of para-tyramine solution (200 μM). […] Each experiment was performed in duplicate.
Regarding `CC1CCCN(CCCCCOc2ccc(-c3ccccc3)cc2)C1` (stereo not shown) [Compound 11, 1-(5-([1,1′-Biphenyl]-4-yloxy)pentyl)-3-methylpiperidine Hydrogen Oxalate], the inhibition at 1 µM is 28%.
Still for that read-out and setting: then `CC1CCN(CCCCCCOc2ccccc2-c2ccccc2)CC1` [Compound 18, 1-(6-([1,1′-Biphenyl]-2-yloxy)hexyl)-4-methylpiperidine Hydrogen Oxalate], with 24%.
Still for that read-out and setting: next, `CC1CCN(CCCCCOc2cccc(-c3ccccc3)c2)CC1` [Compound 16]: 7%; `CC1CCCN(CCCCCCOc2cccc(-c3ccccc3)c2)C1` (stereo not shown) [Compound 14, 1-(6-([1,1′-Biphenyl]-3-yloxy)hexyl)-3-methylpiperidine Hydrogen Oxalate]: 35%.
As to `CC1CCCN(CCCCCCOc2ccc(-c3ccccc3)cc2)C1` (stereo not shown) [Compound 13, 1-(6-([1,1′-Biphenyl]-4-yloxy)hexyl)-3-methylpiperidine Hydrogen Oxalate], the inhibition at 1 µM was 20%.
The same measure, in the same setting: then `c1ccc(-c2ccccc2OCCCCCCN2CCCCC2)cc1` [Compound 10, 1-(6-[1,1′-Biphenyl]-2-yloxy)hexyl)piperidine Hydrogen Oxalate], with 40%; and `c1ccc(-c2ccccc2OCCCCCCN2CCCCCC2)cc1` [Compound 22, 1-(6-([1,1′-Biphenyl]-2-yloxy)hexyl)azepane Hydrogen Oxalate], with 17%.
On the same count and under the same terms, then `CC1CCCN(CCCCCCOc2ccccc2-c2ccccc2)C1` (stereo not shown) [Compound 15, 1-(6-([1,1′-Biphenyl]-2-yloxy)hexyl)-3-methylpiperidine Hydrogen Oxalate], with 16%.
Still for that read-out and setting: then `CC1CCCN(CCCCCOc2cccc(-c3ccccc3)c2)C1` (stereo not shown) [Compound 12, 1-(5-([1,1′-Biphenyl]-3-yloxy)pentyl)-3-methylpiperidine Hydrogen Oxalate], with 5%.

The target in another test is T4, AChE from electric eel (Electrophorus electricus, UniProt O42275).
T4 construct: AChE was obtained from electric eel and BuChE from equine serum; purchased Sigma Aldrich; host or cells: electric eel (natural source)
T4 sequence (O42275 24-633): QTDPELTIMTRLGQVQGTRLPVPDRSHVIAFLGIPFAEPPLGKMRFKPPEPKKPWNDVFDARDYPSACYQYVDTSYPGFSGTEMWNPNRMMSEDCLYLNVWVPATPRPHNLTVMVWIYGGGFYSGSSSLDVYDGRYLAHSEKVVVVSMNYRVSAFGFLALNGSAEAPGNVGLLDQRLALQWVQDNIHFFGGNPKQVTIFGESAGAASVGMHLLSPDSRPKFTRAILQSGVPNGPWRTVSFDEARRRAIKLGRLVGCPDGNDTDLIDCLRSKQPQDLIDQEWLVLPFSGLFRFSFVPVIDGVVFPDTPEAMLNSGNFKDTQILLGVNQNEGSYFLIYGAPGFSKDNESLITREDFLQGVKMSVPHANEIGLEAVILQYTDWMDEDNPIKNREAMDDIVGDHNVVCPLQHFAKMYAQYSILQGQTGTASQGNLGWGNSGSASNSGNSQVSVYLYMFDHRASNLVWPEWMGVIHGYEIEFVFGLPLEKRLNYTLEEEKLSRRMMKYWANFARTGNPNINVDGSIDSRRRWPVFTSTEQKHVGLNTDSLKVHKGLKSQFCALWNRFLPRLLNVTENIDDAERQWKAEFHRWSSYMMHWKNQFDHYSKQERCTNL
Nature of the test: eeAChE inhibition, Ellman's method. The format is biochemical. The conditions noted are these: AChE from electric eel; read-out: eeAChE IC50 Mean ± SEM. The protocol: The inhibitory activities of the tested compounds against cholinesterases were evaluated by Ellman’s method. AChE was obtained from electric eel and BuChE from equine serum. Donepezil and rivastigmine were used as reference compounds. […]. Inhibitory activities of the tested compounds against cholinesterases were measured using a spectrophotometric method modified for 96-well microplates as described recently.
[…]. First, all compounds were screened at the concentration of 10 μM. The changes in absorbance were measured at 412 nm, using a microplate reader (EnSpire Multimode; PerkinElmer, Waltham, MA, USA). Then, the percent of inhibition of tested enzymes for each compound was calculated. […] Each concentration was measured in triplicate. All calculations were made using nonlinear regression GraphPad Prism 5 (GraphPad Software, San Diego, CA, USA).
With `CC1CCCN(CCCCCCOc2cccc(-c3ccccc3)c2)C1` (stereo not shown) [Compound 14, 1-(6-([1,1′-Biphenyl]-3-yloxy)hexyl)-3-methylpiperidine Hydrogen Oxalate], the IC50 turned out to be 4710 ± 130 nM.
Still for that read-out and setting: then `CC1CCCN(CCCCCCOc2ccc(-c3ccccc3)cc2)C1` (stereo not shown) [Compound 13, 1-(6-([1,1′-Biphenyl]-4-yloxy)hexyl)-3-methylpiperidine Hydrogen Oxalate], with 5020 ± 90 nM.

The test is the same for the next values; noted with them: read-out: eeAChE % Inh.
For the compound `CC1CCCN(CCCCCOc2ccc(-c3ccccc3)cc2)C1` (stereo not shown) [Compound 11, 1-(5-([1,1′-Biphenyl]-4-yloxy)pentyl)-3-methylpiperidine Hydrogen Oxalate], the inhibition at 10 µM was found to be 45%.
Same read-out and setting: next, `CC1CCN(CCCCCCOc2ccccc2-c2ccccc2)CC1` [Compound 18, 1-(6-([1,1′-Biphenyl]-2-yloxy)hexyl)-4-methylpiperidine Hydrogen Oxalate]: 20%; `CC1CCN(CCCCCOc2cccc(-c3ccccc3)c2)CC1` [Compound 16]: 41%; `CC1CCCN(CCCCCCOc2cccc(-c3ccccc3)c2)C1` (stereo not shown) [Compound 14, 1-(6-([1,1′-Biphenyl]-3-yloxy)hexyl)-3-methylpiperidine Hydrogen Oxalate]: more than 50%.
For the compound `CC1CCCN(CCCCCCOc2ccc(-c3ccccc3)cc2)C1` (stereo not shown) [Compound 13, 1-(6-([1,1′-Biphenyl]-4-yloxy)hexyl)-3-methylpiperidine Hydrogen Oxalate], the inhibition at 10 µM was more than 50%.
Still for that read-out and setting: next, `c1ccc(-c2ccccc2OCCCCCCN2CCCCC2)cc1` [Compound 10, 1-(6-[1,1′-Biphenyl]-2-yloxy)hexyl)piperidine Hydrogen Oxalate]: 8%; `c1ccc(-c2ccccc2OCCCCCCN2CCCCCC2)cc1` [Compound 22, 1-(6-([1,1′-Biphenyl]-2-yloxy)hexyl)azepane Hydrogen Oxalate]: 30%; `CC1CCCN(CCCCCCOc2ccccc2-c2ccccc2)C1` (stereo not shown) [Compound 15, 1-(6-([1,1′-Biphenyl]-2-yloxy)hexyl)-3-methylpiperidine Hydrogen Oxalate]: 24%.
Same read-out and setting: next, `CC1CCCN(CCCCCOc2cccc(-c3ccccc3)c2)C1` (stereo not shown) [Compound 12, 1-(5-([1,1′-Biphenyl]-3-yloxy)pentyl)-3-methylpiperidine Hydrogen Oxalate]: 27%.
